*1 amine or outer side, *2 acyl side, *3 side chain or, on linkers, in order; H or OH if unused. Where a SMILES comes first, the peptide text is derived from it. [ ]: non-standard residue; d: D form. X34 = O=C(C[C@@H](Cc1ccccc1)C(=O)[*:2])C12CC(CN[*:1])(C1)C2; Ala(pyrimidin-5-yl) = N[C@@H](Cc1cncnc1)C(=O)O; X6 = O=C([C@H](Cc1cnn(C2COC2)c1)N[*:1])[*:2]; X14 = O=C([C@H](Cc1c(F)cncc1F)N[*:1])[*:2]; X33 = O=C([C@H](Cc1ccnc(F)c1F)N[*:1])[*:2]; X37 = O=C([C@H](Cc1cnc(F)cc1F)N[*:1])[*:2]; X5 = O=C([C@H](Cc1c(F)ccnc1F)N[*:1])[*:2]; X24 = O=C([C@H](Cc1ccncc1Cl)N[*:1])[*:2]; X11 = CC(C)(F)CC[C@H](N[*:1])C(=O)[*:2]; Nle(5,5-F2) = CC(F)(F)CC[C@H](N)C(=O)O; Phe(2-F) = N[C@@H](Cc1ccccc1F)C(=O)O; X1 = O=C(C12CC(CN[*:1])(C1)C2)[*:2]; Ala(cPr) = N[C@@H](CC1CC1)C(=O)O; NMeF = CN[C@@H](Cc1ccccc1)C(=O)O; PhLac = O=C(O)[C@@H](O)Cc1ccccc1; hLeu = CC(C)CC[C@H](N)C(=O)O; NMeA = CN[C@@H](C)C(=O)O

For orientation: EC50 means the midpoint of the concentration-response curve. The low end stands for an effect from little substance, the high end for a need for much substance.

The target of the assay is KRAS-G12D protein (Homo sapiens, UniProt P01116, G12D). Briefly: SOS-mediated nucleotide exchange assay (BODIPY-GDP / Tb-streptavidin TR-FRET). Format: biochemical.
Sequence of KRAS-G12D protein (P01116 1-188 isoform P01116-2 G12D): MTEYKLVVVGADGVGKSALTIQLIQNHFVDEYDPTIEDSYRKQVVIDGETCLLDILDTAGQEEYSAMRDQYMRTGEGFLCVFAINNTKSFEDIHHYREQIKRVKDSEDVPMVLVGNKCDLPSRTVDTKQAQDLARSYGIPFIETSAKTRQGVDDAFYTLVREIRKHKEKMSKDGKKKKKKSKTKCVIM
`C[C@H]1C(=O)N[C@@H](Cc2cncnc2)C(=O)N[C@@H](CC2CC2)C(=O)N[C@@H](Cc2ccccc2F)C(=O)N[C@@H](CCC(C)(F)F)C(=O)N(C)[C@@H](Cc2ccccc2)C(=O)NCC23CC(C2)(C3)C(=O)C[C@@H](Cc2ccccc2)C(=O)N1C` [compound 290, cyclo(CPhe-NMeA~PyrimAla-cPrA-Phe2F-Nle3F2-NMeF-amBCP)] (cyclo([Ala(cPr)][Phe(2-F)][Nle(5,5-F2)][NMeF][X34][NMeA][Ala(pyrimidin-5-yl)])): a half-maximal response (EC50) required 2 nM.
Regarding `C[C@H]1C(=O)N[C@@H](Cc2cnn(C3COC3)c2)C(=O)N[C@@H](CC2CC2)C(=O)N[C@@H](Cc2ccccc2F)C(=O)N[C@@H](CCC(C)(F)F)C(=O)N(C)[C@@H](Cc2ccccc2)C(=O)NCC23CC(C2)(C3)C(=O)O[C@@H](Cc2ccccc2)C(=O)N1C` [compound 291, cyclo(FLac-NMcA-AlaPyzlOx-cPrA-Phe2F-Nle3F2-NMeF-amBCP)] (cyclo([Ala(cPr)][Phe(2-F)][Nle(5,5-F2)][NMeF][X1][PhLac][NMeA][X6])), the EC50 is 1 nM.
Consider `CC(C)CC[C@@H]1NC(=O)[C@H](Cc2c(F)cncc2F)NC(=O)[C@H](CC2CC2)NC(=O)[C@H](Cc2cncnc2)NC(=O)[C@H](C)N(C)C(=O)[C@H](Cc2ccccc2)OC(=O)C23CC(CNC(=O)[C@H](Cc4ccccc4)N(C)C1=O)(C2)C3` [compound 292, cyclo(FLac-NMeA-PyrimAla-cPrA-4Pal26F2-hL-NMeF-amBCP)] (cyclo([Ala(cPr)][X14][hLeu][NMeF][X1][PhLac][NMeA][Ala(pyrimidin-5-yl)])), for which the EC50 is 64 nM.
The molecule `CC(C)CC[C@@H]1NC(=O)[C@H](Cc2ccnc(F)c2F)NC(=O)[C@H](CC2CC2)NC(=O)[C@H](Cc2cncnc2)NC(=O)[C@H](C)N(C)C(=O)[C@H](Cc2ccccc2)OC(=O)C23CC(CNC(=O)[C@H](Cc4ccccc4)N(C)C1=O)(C2)C3` [compound 293, cyclo(FLac-NMeA-PyrimAla-cPrA-4Pal23F2-hL-NMeF-amBCP)] (cyclo([Ala(cPr)][X33][hLeu][NMeF][X1][PhLac][NMeA][Ala(pyrimidin-5-yl)])) showed an EC50 of 259 nM.
With `CC(C)CC[C@@H]1NC(=O)[C@H](Cc2cnc(F)cc2F)NC(=O)[C@H](CC2CC2)NC(=O)[C@H](Cc2cncnc2)NC(=O)[C@H](C)N(C)C(=O)[C@H](Cc2ccccc2)OC(=O)C23CC(CNC(=O)[C@H](Cc4ccccc4)N(C)C1=O)(C2)C3` [compound 294, cyclo(FLac-NMeA-PyrimAla-cPrA-3Pal46F2-hL-NMeF-amBCP)] (cyclo([Ala(cPr)][X37][hLeu][NMeF][X1][PhLac][NMeA][Ala(pyrimidin-5-yl)])) the figure was 7 nM; with `CC(C)CC[C@@H]1NC(=O)[C@H](Cc2c(F)ccnc2F)NC(=O)[C@H](CC2CC2)NC(=O)[C@H](Cc2cncnc2)NC(=O)[C@H](C)N(C)C(=O)[C@H](Cc2ccccc2)OC(=O)C23CC(CNC(=O)[C@H](Cc4ccccc4)N(C)C1=O)(C2)C3` [compound 295, cyclo(FLac-NMeA-PyrimAla-cPrA-3Pal26F2-hL-NMeF-amBCP)] (cyclo([Ala(cPr)][X5][hLeu][NMeF][X1][PhLac][NMeA][Ala(pyrimidin-5-yl)])), 63 nM.
As for `CC(C)CC[C@@H]1NC(=O)[C@H](Cc2ccncc2Cl)NC(=O)[C@H](CC2CC2)NC(=O)[C@H](Cc2cncnc2)NC(=O)[C@H](C)N(C)C(=O)[C@H](Cc2ccccc2)OC(=O)C23CC(CNC(=O)[C@H](Cc4ccccc4)N(C)C1=O)(C2)C3` [compound 298, cyclo(FLac-NMeA-PyrimAla-cPrA-4Pal2Cl-hL-NMeF-amBCP)] (cyclo([Ala(cPr)][X24][hLeu][NMeF][X1][PhLac][NMeA][Ala(pyrimidin-5-yl)])), the EC50 stood at 11 nM.
In turn, `C[C@H]1C(=O)N[C@@H](Cc2cncnc2)C(=O)N[C@@H](CC2CC2)C(=O)N[C@@H](Cc2ccncc2Cl)C(=O)N[C@@H](CCC(C)(C)F)C(=O)N(C)[C@@H](Cc2ccccc2)C(=O)NCC23CC(C2)(C3)C(=O)O[C@@H](Cc2ccccc2)C(=O)N1C` [compound 299, cyclo(FLac-NMeA-PyrimAla-cPrA-4Pal2Cl-hL3F-NMeF-amBCP)] (cyclo([Ala(cPr)][X24][X11][NMeF][X1][PhLac][NMeA][Ala(pyrimidin-5-yl)])) displayed an EC50 of 6.3 nM.

These data come from patent publication US20260001914A1, “MACROCYCLIC PEPTIDES TARGETING KRAS” (Merck Sharp & Dohme LLC, priority 2022, published 2026).
